For one compound, IC50 results are on record in ChEMBL document CHEMBL5725985, “Substituted pyridines as sodium channel blockers” (2017).

In the experiment the target is Sodium channel protein type 9 subunit alpha (Homo sapiens, UniProt Q15858). The experiment is described as follows: FLIPR Assay: In vitro assays were performed in a recombinant cell line expressing cDNA encoding the alpha subunit (Nav1.7, SCN9a, PN1, NE) of human Nav1.7 (Accession No. NM_002977). The cell line was provided by investigators at Yale University (Cummins et al, J. Neurosci. 18(23): 9607-9619 (1998)). For dominant selection of the Nav1.7-expressing clones, the expression plasmid co-expressed the neomycin resistance gene. The cell line was constructed in the human embryonic kidney cell line, HEK293, under the influence of the CMV […] promoter, and stable clones were selected using limiting dilution cloning and antibiotic selection using the neomycin analogue, G418. Recombinant beta and gamma subunits were not introduced into this cell line. Additional cell lines expressing recombinant Nav1.7 cloned from other species can also be used, alone or in combination with various beta subunits, gamma subunits or chaperones.
Sequence of Sodium channel protein type 9 subunit alpha (Q15858 whole entry): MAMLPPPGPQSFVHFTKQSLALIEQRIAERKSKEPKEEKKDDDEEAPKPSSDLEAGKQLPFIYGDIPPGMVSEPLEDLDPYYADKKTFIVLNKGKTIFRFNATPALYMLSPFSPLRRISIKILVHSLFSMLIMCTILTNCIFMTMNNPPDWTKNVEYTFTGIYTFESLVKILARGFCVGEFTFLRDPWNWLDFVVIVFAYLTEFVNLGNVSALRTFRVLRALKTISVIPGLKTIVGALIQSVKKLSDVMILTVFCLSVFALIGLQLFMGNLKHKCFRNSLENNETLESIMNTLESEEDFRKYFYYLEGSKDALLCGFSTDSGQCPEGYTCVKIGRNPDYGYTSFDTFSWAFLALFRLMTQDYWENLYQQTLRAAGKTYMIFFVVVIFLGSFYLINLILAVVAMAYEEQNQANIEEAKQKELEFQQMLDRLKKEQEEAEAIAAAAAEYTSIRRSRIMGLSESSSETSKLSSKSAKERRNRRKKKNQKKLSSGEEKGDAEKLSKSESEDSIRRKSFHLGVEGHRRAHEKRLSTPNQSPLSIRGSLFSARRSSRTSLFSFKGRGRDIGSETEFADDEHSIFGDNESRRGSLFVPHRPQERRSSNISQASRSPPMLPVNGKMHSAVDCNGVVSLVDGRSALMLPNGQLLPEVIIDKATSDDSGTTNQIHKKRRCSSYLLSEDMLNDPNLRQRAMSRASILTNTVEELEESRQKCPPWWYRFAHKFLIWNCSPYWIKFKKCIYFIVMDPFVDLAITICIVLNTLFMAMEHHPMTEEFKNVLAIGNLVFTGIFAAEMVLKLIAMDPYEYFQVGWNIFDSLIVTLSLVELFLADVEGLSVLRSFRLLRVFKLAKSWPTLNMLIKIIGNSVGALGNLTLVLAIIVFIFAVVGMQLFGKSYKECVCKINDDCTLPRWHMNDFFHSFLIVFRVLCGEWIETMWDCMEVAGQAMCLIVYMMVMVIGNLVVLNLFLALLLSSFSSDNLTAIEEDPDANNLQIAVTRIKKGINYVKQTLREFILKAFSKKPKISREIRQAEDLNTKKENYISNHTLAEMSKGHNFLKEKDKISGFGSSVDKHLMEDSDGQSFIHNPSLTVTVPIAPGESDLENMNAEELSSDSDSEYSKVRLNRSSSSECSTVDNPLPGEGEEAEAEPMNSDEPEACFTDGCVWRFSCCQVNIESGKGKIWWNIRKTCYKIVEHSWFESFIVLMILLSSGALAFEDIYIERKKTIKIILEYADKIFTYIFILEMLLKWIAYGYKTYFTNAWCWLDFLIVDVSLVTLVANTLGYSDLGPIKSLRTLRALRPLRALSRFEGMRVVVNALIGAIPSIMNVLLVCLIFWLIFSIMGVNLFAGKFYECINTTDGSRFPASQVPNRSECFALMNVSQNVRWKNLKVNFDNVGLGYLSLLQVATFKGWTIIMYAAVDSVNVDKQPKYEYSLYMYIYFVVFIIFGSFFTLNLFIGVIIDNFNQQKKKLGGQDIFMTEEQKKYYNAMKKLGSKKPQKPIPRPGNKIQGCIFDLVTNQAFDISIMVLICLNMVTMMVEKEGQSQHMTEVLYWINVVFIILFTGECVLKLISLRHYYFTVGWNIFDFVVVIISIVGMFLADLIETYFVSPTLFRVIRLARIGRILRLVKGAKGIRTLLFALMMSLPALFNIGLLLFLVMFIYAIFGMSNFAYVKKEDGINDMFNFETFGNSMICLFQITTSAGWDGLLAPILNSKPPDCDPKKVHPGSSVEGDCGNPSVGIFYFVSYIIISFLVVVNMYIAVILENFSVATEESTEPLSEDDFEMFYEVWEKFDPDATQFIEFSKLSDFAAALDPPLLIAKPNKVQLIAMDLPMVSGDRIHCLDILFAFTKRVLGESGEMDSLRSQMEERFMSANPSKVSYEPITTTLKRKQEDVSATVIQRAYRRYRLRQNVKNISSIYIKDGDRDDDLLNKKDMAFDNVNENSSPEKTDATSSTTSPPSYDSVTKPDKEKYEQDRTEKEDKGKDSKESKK

Take `CC(C)C[C@H](NC(=O)C1CC1)C(=O)Nc1cccc(-c2ccc(Oc3ccc(F)cc3)cc2)n1`: the IC50 was found to be 36 nM.
